Measured values: ChEMBL document CHEMBL1201862, “PubChem BioAssay data set” (2004)
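Dose response: 5 concentrations. Exposure: 48 h. Format: 96-well plates. Endpoint: linear interpolation; highest concentration if not reached. Here, GI50 denotes the concentration required for 50% inhibition of growth.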 Active and inactive are the calls of the source. Cut-off read from the data, not from the text of the source: active = GI50 up to about 1.1 µM and inactive = higher.

Key:
Test in all cases: NCI-60 cell line screen, 48 h
T47D = system: T47D
SF-295 = system: SF-295
HCT-15 = system: HCT-15
MDA-N = system: MDA-N
HOP-62 = system: HOP-62
CCRF-CEM = system: CCRF-CEM
UO-31 = system: UO-31
OVCAR-3 = system: OVCAR-3
DU-145 = system: DU-145
SF-539 = system: SF-539
COLO 205 = system: COLO 205
HT-29 = system: HT-29
Hs-578T = system: Hs-578T
NCI-H23 = system: NCI-H23
SN12C = system: SN12C
A498 = system: A498
KM12 = system: KM12
BT-549 = system: BT-549
HOP-92 = system: HOP-92
HL-60 = system: HL-60

SMILES	GI50 (T47D)	GI50 (SF-295)	GI50 (HCT-15) [µM]	GI50 (MDA-N)	GI50 (HOP-62)	GI50 (CCRF-CEM)	GI50 (UO-31)	GI50 (OVCAR-3)	GI50 (DU-145)	GI50 (SF-539)	GI50 (COLO 205)	GI50 (HT-29)	GI50 (Hs-578T)	GI50 (NCI-H23)	GI50 (SN12C)	GI50 (A498)	GI50 (KM12)	GI50 (BT-549)	GI50 (HOP-92)	GI50 (HL-60)
COc1ccc(C2=NN(C(=O)c3ccccc3)C(O)(c3cc(F)c(Cl)cc3Cl)C2)cc1OC (stereo not given)	50.8 µM (inactive)	29.5 µM (inactive)	> 100	57.5 µM (inactive)	17.2 µM (inactive)	> 100 µM (inactive)	30.9 µM (inactive)	20.4 µM (inactive)	39 µM (inactive)	43.1 µM (inactive)	> 100 µM (inactive)	23.5 µM (inactive)	34.5 µM (inactive)	42.3 µM (inactive)	94.4 µM (inactive)	32.1 µM (inactive)	> 100 µM (inactive)	> 100 µM (inactive)	21.4 µM (inactive)	> 100 µM (inactive)
Nc1nc(-c2cccnc2)cc(-c2cc(-c3cccnc3)nc(N)n2)n1	> 100 µM (inactive)	> 100 µM (inactive)	> 100	58.7 µM (inactive)	> 100 µM (inactive)	75.2 µM (inactive)	> 100 µM (inactive)	> 100 µM (inactive)	> 100 µM (inactive)	> 100 µM (inactive)	> 100 µM (inactive)	> 100 µM (inactive)	> 100 µM (inactive)	> 100 µM (inactive)	> 100 µM (inactive)	> 100 µM (inactive)	> 100 µM (inactive)	> 100 µM (inactive)	> 100 µM (inactive)	> 100 µM (inactive)
O=[N+]([O-])c1oc2ccc3ccccc3c2c1CCO	13.2 µM (inactive)	1.57 µM (inactive)	3.56	1.77 µM (inactive)	16.6 µM (inactive)	3.86 µM (inactive)	1.64 µM (inactive)	12.6 µM (inactive)	3.51 µM (inactive)	3.28 µM (inactive)	0.346 µM (active)	2.94 µM (inactive)	5.22 µM (inactive)	3.23 µM (inactive)	6.21 µM (inactive)	0.166 µM (active)	9.33 µM (inactive)	2.29 µM (inactive)	3.5 µM (inactive)	1.74 µM (inactive)
CC1(C)N=C(N)N=C(N)N1c1cccc(Cl)c1	> 100 µM (inactive)	1.83 µM (inactive)	10.5	0.49 µM (active)	4.85 µM (inactive)	3.76 µM (inactive)	15.5 µM (inactive)	22.4 µM (inactive)	17.4 µM (inactive)	4.66 µM (inactive)	5.35 µM (inactive)	0.785 µM (active)	> 100 µM (inactive)	3.22 µM (inactive)	10.3 µM (inactive)	> 100 µM (inactive)	7.98 µM (inactive)	6.71 µM (inactive)	42.5 µM (inactive)	> 100 µM (inactive)
CCOC(=O)C1C2C1C1C(C(=O)OCC)C21 (stereo not given)	49.2 µM (inactive)	> 100 µM (inactive)	> 100	> 100 µM (inactive)	> 100 µM (inactive)	> 100 µM (inactive)	> 100 µM (inactive)	> 100 µM (inactive)	> 100 µM (inactive)	> 100 µM (inactive)	> 100 µM (inactive)	57.5 µM (inactive)	> 100 µM (inactive)	> 100 µM (inactive)	> 100 µM (inactive)	> 100 µM (inactive)	> 100 µM (inactive)	> 100 µM (inactive)	> 100 µM (inactive)	63.8 µM (inactive)
O=C1C(O)=C(C(CCc2ccccc2)C2=C(O)C(=O)c3ccccc3C2=O)C(=O)c2ccccc21	> 100 µM (inactive)	6.11 µM (inactive)	40.9	16.2 µM (inactive)	28.8 µM (inactive)	37.9 µM (inactive)	> 100 µM (inactive)	30.7 µM (inactive)	8.55 µM (inactive)	58.5 µM (inactive)	28.4 µM (inactive)	18.8 µM (inactive)	5.32 µM (inactive)	3.65 µM (inactive)	56 µM (inactive)	76.4 µM (inactive)	> 100 µM (inactive)	> 100 µM (inactive)	40 µM (inactive)	1.1 µM (active)
CCOC(=O)C(Cc1ccc(OC(=O)c2ccc(OC)cc2)cc1)NC(=O)C(F)(F)F (stereo not given)	> 100 µM (inactive)	80.7 µM (inactive)	> 100	> 100 µM (inactive)	35.5 µM (inactive)	39.5 µM (inactive)	> 100 µM (inactive)	> 100 µM (inactive)	> 100 µM (inactive)	> 100 µM (inactive)	> 100 µM (inactive)	> 100 µM (inactive)	> 100 µM (inactive)	45.2 µM (inactive)	> 100 µM (inactive)	> 100 µM (inactive)	> 100 µM (inactive)	> 100 µM (inactive)	45.8 µM (inactive)	> 100 µM (inactive)
CCOC(=O)NC(=O)c1cn(CCCOC(=O)CCCCCCCCC(=O)OCCCn2cc(C(=O)NC(=O)OCC)c(=O)n(C)c2=O)c(=O)n(C)c1=O	> 100 µM (inactive)	> 100 µM (inactive)	> 100	> 100 µM (inactive)	> 70.6 µM (inactive)	> 46.5 µM (inactive)	> 100 µM (inactive)	> 100 µM (inactive)	> 100 µM (inactive)	> 68.7 µM (inactive)	> 100 µM (inactive)	> 100 µM (inactive)	> 100 µM (inactive)	> 100 µM (inactive)	> 100 µM (inactive)	> 100 µM (inactive)	> 100 µM (inactive)	> 100 µM (inactive)	> 59 µM (inactive)	> 77.8 µM (inactive)
CC(C)=CCCC(C)CCOS(=O)C(F)(F)F (stereo not given)	43.7 µM (inactive)	25.1 µM (inactive)	2.49	1.6 µM (inactive)	70.1 µM (inactive)	4.29 µM (inactive)	13.1 µM (inactive)	11.2 µM (inactive)	35.3 µM (inactive)	31.3 µM (inactive)	4.7 µM (inactive)	5.12 µM (inactive)	1.16 µM (inactive)	2.58 µM (inactive)	7.93 µM (inactive)	20.8 µM (inactive)	88.7 µM (inactive)	5.24 µM (inactive)	18.7 µM (inactive)	2.88 µM (inactive)
Cc1ccc(C(=O)O)c(/C=C2\Cc3ccc(C)cc3C2=O)c1	92 µM (inactive)	38.1 µM (inactive)	56.4	37.8 µM (inactive)	44.2 µM (inactive)	51.3 µM (inactive)	62.1 µM (inactive)	31.8 µM (inactive)	79.8 µM (inactive)	20 µM (inactive)	51.4 µM (inactive)	34.8 µM (inactive)	64.3 µM (inactive)	75.3 µM (inactive)	40.6 µM (inactive)	65.9 µM (inactive)	61.4 µM (inactive)	12.9 µM (inactive)	> 100 µM (inactive)	28.6 µM (inactive)
O=c1ccs[nH]1	3.81 µM (inactive)	6.17 µM (inactive)	11.6	17.5 µM (inactive)	17 µM (inactive)	1.56 µM (inactive)	7.21 µM (inactive)	8.17 µM (inactive)	40.5 µM (inactive)	5.92 µM (inactive)	8.91 µM (inactive)	11.2 µM (inactive)	22 µM (inactive)	3.8 µM (inactive)	11.1 µM (inactive)	46.8 µM (inactive)	26.7 µM (inactive)	16.8 µM (inactive)	16.7 µM (inactive)	3.13 µM (inactive)
O=C(NNC(=O)c1ccccc1S)c1ccccc1S [BIS(THIOSALICYL)HYDRAZIDE]	10.8 µM (inactive)	10.3 µM (inactive)	6.03	18.2 µM (inactive)	15.9 µM (inactive)	1.24 µM (inactive)	8.43 µM (inactive)	9.14 µM (inactive)	20.6 µM (inactive)	11.7 µM (inactive)	11.1 µM (inactive)	8.47 µM (inactive)	45 µM (inactive)	11.1 µM (inactive)	13.6 µM (inactive)	> 100 µM (inactive)	24.5 µM (inactive)	9.38 µM (inactive)	> 25 µM (inactive)	8.79 µM (inactive)
CC1(O)CC2(O)C=CC3=C(C(=O)c4cccc(O)c4C3=O)C2(O)C(=O)C1O (stereo not given)	1.64 µM (inactive)	13.6 µM (inactive)	1.28	1.78 µM (inactive)	21.6 µM (inactive)	0.206 µM (active)	1.99 µM (inactive)	2.28 µM (inactive)	18.4 µM (inactive)	5.5 µM (inactive)	0.152 µM (active)	2.43 µM (inactive)	3.1 µM (inactive)	2.92 µM (inactive)	3.28 µM (inactive)	7.26 µM (inactive)	8 µM (inactive)	1.17 µM (inactive)	1.07 µM (active)	0.478 µM (active)
CC(=O)N[C@@H](Cc1ccc(O)cn1)C(=O)NCc1ccc2c(c1)OCO2	> 100 µM (inactive)	> 100 µM (inactive)	> 100	> 100 µM (inactive)	> 100 µM (inactive)	> 100 µM (inactive)	> 100 µM (inactive)	> 100 µM (inactive)	> 100 µM (inactive)	> 100 µM (inactive)	> 100 µM (inactive)	> 100 µM (inactive)	> 100 µM (inactive)	> 100 µM (inactive)	> 100 µM (inactive)	> 100 µM (inactive)	> 100 µM (inactive)	> 100 µM (inactive)	> 100 µM (inactive)	> 100 µM (inactive)
